Source: PubChem BioAssay AID687005 (Broad Institute, 2013)
Inconclusive results are not listed. Calls of active or inactive are those of the source.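 Rule for the calls: active = Compounds that reduce signal, with fitted half-maximal dose at or under twice the top valid tested dose; inconclusive = Poor fit, or flat curve losing 30 to 70% of signal; inactive = Potency past limit, flat within 30%, or opposite direction.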

experiment: HEK293T cell cytotoxicity, dose response, cytotoxicity control, ATP luminescence, cherry-pick samples (AID 687005); details: HEK293T viability, ATP luminescence (CellTiter-Glo), 48 h; at 23.5 µM (top of the series)

| SMILES | activity change, negative = cytotoxicity |
| --- | --- |
| COC(=O)C1=C(C)N(Cc2ccccc2)C(=S)N[C@H]1c1ccc(Br)cc1 | 13.4% (inactive) |
| C[C@H]1CN([C@@H](C)CO)C(=O)c2cc(NC(=O)Nc3ccc(F)cc3)ccc2O[C@@H]1CN(C)S(C)(=O)=O | 2.53% (inactive) |
| CC(C)NC(=O)Nc1ccc2c(c1)CC(=O)N([C@@H](C)CO)C[C@H](C)[C@H](CN(C)Cc1ccc3c(c1)OCO3)O2 | 26.2% (inactive) |
| C[C@H](CO)N1C[C@H](C)[C@H](CN(C)C(=O)Nc2ccc3c(c2)OCO3)Oc2ncc(C#CC(C)(C)O)cc2C1=O | -10.7% (inactive) |
| COCC(=O)N1C[C@H](C)[C@@H](OC)CN(C)C(=O)c2ccc(NS(C)(=O)=O)cc2OC[C@@H]1C | 17.4% (inactive) |
| COc1cccc(C#Cc2cnc3c(c2)C(=O)N([C@H](C)CO)C[C@@H](C)[C@@H](CN(C)C(=O)C2CCOCC2)O3)c1 | 6.67% (inactive) |
| C[C@H](CO)N1C[C@H](C)[C@@H](CN(C)C(=O)c2ccncc2)OCCCC[C@H](C)Oc2ccc(NC(=O)Cc3ccccc3)cc2C1=O | -0.45% (inactive) |
| Cc1ccc(S(=O)(=O)N2C[C@@H](O)COC[C@H]3O[C@H](CC(=O)NCc4ccc5c(c4)OCO5)CC[C@@H]32)cc1 | -12.4% (inactive) |
| COC(=O)C1=C(C)N(Cc2ccccc2)C(=S)NC1c1ccc(Br)cc1 (stereo not given) | -9.89% (inactive) |
| Cc1noc(C)c1NC(=O)N(C)C[C@@H]1Oc2ccc(NC(=O)NC(C)C)cc2CC(=O)N([C@@H](C)CO)C[C@@H]1C | -4.18% (inactive) |
| CO[C@H]1CN(C)C(=O)c2cc(NC(=O)C3CCOCC3)ccc2OC[C@@H](C)NC[C@H]1C | 41% (inactive) |
| N#Cc1ccc(-c2ccc3c(c2)[C@@H]2[C@@H](CCN2C(=O)Cc2ccccc2)[C@@H](CO)N3)cc1 | -19.6% (inactive) |

same assay, conditions: HEK293T viability, ATP luminescence (CellTiter-Glo), 48 h; at 26 µM (top of the series)

| SMILES | activity change, negative = cytotoxicity |
| --- | --- |
| CCC(=O)N[C@H]1C=C[C@@H](CC(=O)OC)O[C@@H]1CO | -29.7% (inactive) |
| CC(=O)c1sc(NC(=O)c2cc(-c3ccccc3)nn2-c2ccccc2)nc1C | 38.5% (inactive) |
| O=C(NC[C@H]1[C@@H](c2ccccc2)[C@@H](CO)N1C(=O)C1CCC1)NC1CCCC1 | -38.9% (inactive) |
| COCCNC(=O)C[C@H]1C[C@@H]2c3cc(NC(=O)C4CCC4)ccc3O[C@@H]2[C@H](CO)O1 | 26.2% (inactive) |
| COCC#Cc1cnc2c(c1)C(=O)N([C@H](C)CO)C[C@@H](C)[C@@H](CN(C)C(=O)Nc1ccc(OC)cc1)O2 | -11.3% (inactive) |
| CO[C@H]1CC[C@@H]2CCOc3c(C#N)cccc3C(=O)N(C)C[C@@H](OC)[C@@H](C)C(=O)N(C)C[C@@H]1O2 | -16.3% (inactive) |
| Cc1cc(C(=O)NC(=S)Nc2ccccc2N2CCOCC2)ccc1[N+](=O)[O-] | -23.2% (inactive) |
| CN1C(=O)c2cc(NC(=O)Nc3ccc(Cl)cc3)ccc2OC[C@H]2O[C@@H](CC(=O)NCCN3CCCCC3)CC[C@@H]21 | 36.5% (inactive) |
| Cc1ccc(S(=O)(=O)N[C@H]2CC[C@H](CC(=O)NCc3ccccc3F)O[C@H]2CO)cc1 | 8.09% (inactive) |
| O=C(COc1ccc2c(c1)CCC2)NCc1ccc(Cl)cc1 | 18.5% (inactive) |
| COc1ccc(NC(=O)N(C)C[C@H]2OCCCC[C@@H](C)Oc3ccc(N(C)C)cc3C(=O)N([C@H](C)CO)C[C@H]2C)cc1 | -1% (inactive) |
| C[C@@H]1CN([C@H](C)CO)C(=O)c2cc(/C=C/c3ccccc3)cnc2O[C@@H]1CN(C)S(C)(=O)=O | -0.658% (inactive) |
| C[C@H]1CN([C@@H](C)CO)C(=O)CCCn2nncc2CO[C@H]1CN(C)C(=O)Oc1cccc2ccccc12 | -6.41% (inactive) |
| COc1ccccc1CNC(=O)COc1ccc2c(c1)CCC2 | 28.6% (inactive) |
| CNC(=O)C[C@@H]1CC[C@@H]2[C@H](COC[C@H](O)CN2S(=O)(=O)c2cccc(Cl)c2)O1 | 3.1% (inactive) |
| C[C@@H]1CCCCO[C@@H](CN(C)C(=O)Nc2cccc3ccccc23)[C@@H](C)CN([C@H](C)CO)C(=O)c2cc(NS(=O)(=O)c3ccccc3)ccc2O1 | 6.51% (inactive) |
| CCCC(=O)Nc1ccc2c(c1)OC[C@@H](C)N(Cc1ccccn1)C[C@@H](C)[C@H](OC)CN(C)C2=O | 25.3% (inactive) |
| Cc1cc(C)c(NC(=O)C2CCCN2C)c(C)c1 (stereo not given) | 10.5% (inactive) |
| C[C@@H]1CN([C@@H](C)CO)C(=O)c2cc(NC(=O)CCN3CCOCC3)ccc2O[C@@H]1CN(C)Cc1ccc(C(=O)O)cc1 | -11.9% (inactive) |
| CCCNC(=O)N1[C@H](CO)[C@@H](c2ccc(C3=CCCC3)cc2)[C@@H]1CN(C)C(C)=O | 37.6% (inactive) |
| C[C@H]1CN([C@@H](C)CO)C(=O)Cc2cc(NC(=O)Nc3ccccc3)ccc2O[C@H]1CN(C)C(=O)Nc1ccc2c(c1)OCO2 | -2.2% (inactive) |
| O=C(CN(c1ccccc1)S(=O)(=O)c1ccc(F)cc1)NC1CCS(=O)(=O)C1 (stereo not given) | -0.328% (inactive) |
| CC(NC(=O)COc1ccc([N+](=O)[O-])cc1)c1ccccc1 (stereo not given) | 18.2% (inactive) |
| C[C@H](CO)N1C[C@H](C)[C@H](CN(C)C(=O)NC2CCCCC2)OCCCC[C@H](C)Oc2ccc(NC(=O)C3CCCCC3)cc2C1=O | 15% (inactive) |
| C[C@@H]1CN([C@@H](C)CO)C(=O)c2cc(N(C)C)ccc2O[C@@H]1CN(C)C(=O)Nc1ccc(C(F)(F)F)cc1 | -29.4% (inactive) |

| SMILES | activity change, negative = cytotoxicity |
| --- | --- |
| CN1[C@H](C(=O)N2CCc3ccccc3C2)[C@@H](CO)[C@@H]2Cn3c(ccc(-c4cccnc4)c3=O)[C@@H]21 | 7.82% (inactive) |
| COc1cc(NC(=O)CN2CCN(S(=O)(=O)c3ccc(C(C)C)cc3)CC2)cc(OC)c1 | 2.05% (inactive) |
| COc1ccc(S(=O)(=O)Nc2ccc3c(c2)C(=O)N([C@H](C)CO)C[C@H](C)[C@H](CN(C)C(=O)Nc2ccccc2)O3)cc1 | -2.82% (inactive) |
| COc1cccc(S(=O)(=O)N2C[C@@H](O)COC[C@H]3O[C@H](CC(=O)N4CCN(C)CC4)CC[C@@H]32)c1 | -1.64% (inactive) |
| CO[C@H]1CN(C)C(=O)c2cc(NC(=O)C3CC3)ccc2OC[C@@H](C)N(Cc2cncnc2)C[C@H]1C | -23.3% (inactive) |
| O=C(NCC[C@H]1CC[C@H](NS(=O)(=O)c2ccc(F)cc2)[C@@H](CO)O1)c1ccc2c(c1)OCO2 | -2.6% (inactive) |
| O=C(Nc1ccccc1)N[C@@H]1CC[C@@H](CCNC(=O)c2ccccc2F)O[C@H]1CO | -29.3% (inactive) |
| CCNC(=O)Nc1ccc2c(c1)C(=O)N(C)[C@@H]1CC[C@H](CC(=O)N[C@@H](C)c3ccccc3)O[C@@H]1CO2 | 66.2% (inactive) |
| C[C@H](CO)N1C[C@H](C)[C@@H](CN(C)C(=O)c2cccc(F)c2)Oc2cc(-c3cncnc3)ccc2S1(=O)=O | -22.6% (inactive) |
| CNC[C@H]1OCCCC[C@H](C)Oc2ccc(NC(=O)Cc3ccccc3)cc2C(=O)N([C@H](C)CO)C[C@@H]1C | -17.1% (inactive) |
| C[C@H]1CN([C@@H](C)CO)C(=O)Cc2cc(NC(=O)Nc3cccc4ccccc34)ccc2O[C@H]1CN(C)S(=O)(=O)c1cccs1 | -25.9% (inactive) |
| O=C(NC1CCCC1)N1CCCCN2[C@H](CO)[C@@H](c3ccc(-c4cncnc4)cc3)[C@H]2C1 | 41.2% (inactive) |
| Cc1ccc(NC(=O)C2CCC(=O)N2)cc1C (stereo not given) | -5.26% (inactive) |
| S=C(Nc1ccccc1)Nc1cc(Cl)ccc1Oc1ccccc1 | -0.976% (inactive) |
| O=C(C[C@@H]1CC[C@H]2[C@@H](COC[C@H](O)CN2Cc2cccc(C(F)(F)F)c2)O1)NCc1ccccc1 | -14.1% (inactive) |
| CO[C@@H]1CN(C)C(=O)c2cc(NC(=O)C3CC3)ccc2OC[C@H](C)N(C(=O)c2ccncc2)C[C@H]1C | -22.9% (inactive) |
| CN(C)CCCn1c(=O)n(C2CCCCC2)c(=O)c2c3c(sc21)CCCCC3 | 50.5% (inactive) |
| CCCNC(=O)Nc1ccc2c(c1)C(=O)N(C)C[C@@H](OC)[C@@H](C)CN(C(=O)CC)[C@H](C)CO2 | -2.92% (inactive) |
| CO[C@H](CN(C)Cc1cc(F)ccc1F)[C@@H](C)CN([C@@H](C)CO)S(=O)(=O)c1ccc(F)cc1 | 14.8% (inactive) |
| CC(C)NC(=O)Nc1ccc2c(c1)C(=O)N([C@@H](C)CO)C[C@@H](C)[C@@H](CN(C)C(=O)c1ccncc1)OCCCC[C@@H](C)O2 | -15.2% (inactive) |
| C[C@H](CO)N1C[C@H](C)[C@H](CN(C)Cc2ccccc2)OCCCC[C@H](C)Oc2ccc(NS(=O)(=O)c3cccs3)cc2C1=O | -20.5% (inactive) |
| O=C(CSc1ncnc2c1cnn2-c1ccc(F)cc1)NC1CCCC1 | -30.5% (inactive) |
| CCC(C)(NC=O)C(=O)Nc1c(C)cccc1C (stereo not given) | -37.8% (inactive) |
| CCCNC(=O)N(C)C[C@H]1Oc2ncc(C#CC3CCCCC3)cc2C(=O)N([C@@H](C)CO)C[C@@H]1C | 9.03% (inactive) |
| C[C@@H]1CN([C@@H](C)CO)C(=O)Cc2cc(NS(=O)(=O)c3ccccc3)ccc2O[C@@H]1CN(C)Cc1ccc(Cl)c(Cl)c1 | -71.5% (inactive) |

same assay, conditions: HEK293T viability, ATP luminescence (CellTiter-Glo), 48 h; at 30 µM (top of the series)

| SMILES | activity change, negative = cytotoxicity |
| --- | --- |
| NC(=O)CN(c1ccccc1)S(=O)(=O)c1ccc(F)cc1 | -2.68% (inactive) |

same assay, conditions: HEK293T viability, ATP luminescence (CellTiter-Glo), 48 h; at 42 µM (top of the series)

| SMILES | activity change, negative = cytotoxicity |
| --- | --- |
| O=C(Cc1cccs1)N1CCN(c2ccccc2)CC1 | 21.1% (inactive) |

same assay, conditions: HEK293T viability, ATP luminescence (CellTiter-Glo), 48 h; at 46 µM (top of the series)

| SMILES | activity change, negative = cytotoxicity |
| --- | --- |
| CCCC(=O)N1CCC1(C)C(=O)Nc1ccc(C)cc1 (stereo not given) | -12.7% (inactive) |
